{
  "source": "patent US20230293629A1",
  "about": "“METHODS FOR ATTENUATING RELEASE OF INFLAMMATORY MEDIATORS AND PEPTIDES USEFUL THEREIN” (BIOMARCK PHARMACEUTICALS LTD., priority 2006, published 2023)",
  "key": {"[1]": {"system": "NK-92 cells", "experiment": "PMA-stimulated granzyme release from NK-92 cells (BLT hydrolysis)", "type": "cell-based, human", "conditions": "50 μM test peptide, two hour incubation with 100 nM PMA", "procedure": "Three types of human leukocyte cell lines, specifically the promyelocytic cell line HL-60 clone 15, the monocytic cell line U937, and the lymphocyte natural killer cell line NK-92 were purchased from American Type Culture Collection (ATCC; Rockville, MD). HL-60 clone 15 cells (ATCC CRL-1964) were maintained in medium consisting of RPMI 1640 with L-glutamine supplemented with 10% heat-inactivated fetal bovine serum (Gibco; Invitrogen Co., Carlsbad, CA), 50 IU/ml penicillin, 50 μg/mL streptomycin, and 25 mM HEPES buffer, pH 7.8, at 37° C. in an atmosphere containing 5% CO2. […] Viability of cells harvested for experiments was assessed by trypan blue exclusion and populations of cells with viability >95% were used. […]\nFor measurements of released MPO from neutrophils and released lysozyme from U937 cells, we were able to quantify secretion by using as standards human MPO and […], respectively. For released EPO from HL-60 clone 15 cells and for released granzyme from NK-92 cells, no standards were available to use for quantification. […] To measure intracellular EPO in HL-60 clone 15 cells and intracellular granzyme in NK-92 cells, appropriate aliquots of 0.1% triton X-100-lysed cells were taken for quantification of intracellular granule proteins as described below. All treatments were expressed as percentage of control to minimize variability between cultures. […]"}, "[2]": {"system": "ozone-induced neutrophil migration", "experiment": "Mouse model of ozone-induced COPD: neutrophil migration, IL-6, KC, IFNγ in BAL fluid", "type": "in vivo, mice", "conditions": "for Concentration of IFNγ in BAL fluid / Concentration of KC in BAL fluid / Concentration of IL-6 in BAL fluid: 25 μL 1.0 mM peptide intratracheal 30 min before 2 h ozone; for Concentration of IFNγ in BAL fluid: PBS+ozone 8.6, forced air 5.0; for Concentration of KC in BAL fluid: PBS+ozone 466.6, forced air 36.3; for Concentration of IL-6 in BAL fluid: PBS+ozone 1041.3, forced air 43.2", "procedure": "Ten-week-old Balb/C female mice were obtained from Charles River laboratories and housed under NIH guidelines in groups of 5 per cage. The animals received standard rodent diet and filtered water ad libitum. Three treatment groups of mice, 5 animals in each group, were each anesthetized by intraperitoneal injection of Ketamine (100 mg/kg) and Xylazine (20 mg/kg) and then pretreated by intratracheal administration with 25 μL of either PBS alone, or a solution of 1.0 mM MANS peptide in PBS, or a solution of a 1.0 mM of an acetylated MANS-fragment-peptide Ac-[…] designated as acetylated SEQ ID NO: 106 in PBS. After 30 minutes, the animals were then placed in the appropriate custom-made chamber for ozone or forced air exposures. The animals were exposed to ozone for 2 hours (at ozone concentrations of 1-10 ppm by a slightly modified method described by Haddad et al, 1995. (Haddad E-B, Salmon M, Sun J, Liu S, Das A, Adcock I, Barnes P J, and Chung K F, FEBS Letters, 363:285-288, 1995). The ozone was generated using an ozone generator apparatus model OL80F/B from OzoneLab, Burton, British Columbia, Canada. Ozone concentration was continuously monitored using a Teledyne Photometric 03 Analyzer (model 400E, Teledyne Instruments, City of Industry, CA). Two additional groups of mice, each without any pretreatment, were either exposed to ozone under the same conditions or exposed to forced air under conditions similar to the ozone treatment group but absent ozone. After exposure, the animals were sacrificed by exsanguination and the lungs were serially lavaged 2 times with 1.0 mL aliquots of PBS. The collected bronchoalveolar lavage (BAL) fluid was centrifuged to remove the cells for subsequent counting and differential analysis. Recovered lavage fluid was used for protein and additional analysis of IL-6, IFNγ, and KC (murine IL-8 analog) by ELISA assay (assay kits obtained from R&D Systems, Minneapolis, MN).\nThe percent inhibition of neutrophil migration into the BAL fluid as a function of treatment groups and relative to a control group treated with PBS alone are provided in the table."}, "[3]": {"conditions": "after ozone exposure, vs. PBS control, listed as acetylated SEQ ID NO:106"}},
  "note": "“And” between values parts separate entries of the source, which are not always exact repeats. Equal entries are not always repeated. Where a SMILES comes first, the peptide text is derived from it. Where no end group is shown, it is not given here. The star is where a group is joined. Myristoyl = CCCCCCCCCCCCCC(=O)*",
  "data": [
    {"compound": "CCCCCCCCCCCCCC(=O)NCC(=O)N[C@@H](C)C(=O)N[C@@H](CCC(N)=O)C(=O)N[C@@H](Cc1ccccc1)C(=O)N[C@@H](CO)C(=O)N[C@@H](CCCCN)C(=O)N[C@H](C(=O)N[C@@H](C)C(=O)N[C@@H](C)C(=O)N[C@@H](CCCCN)C(=O)NCC(=O)N[C@@H](CCC(=O)O)C(=O)N[C@@H](C)C(=O)N[C@@H](C)C(=O)N[C@@H](C)C(=O)N[C@@H](CCC(=O)O)C(=O)N[C@@H](CCCNC(=N)N)C(=O)N1CCC[C@H]1C(=O)NCC(=O)N[C@@H](CCC(=O)O)C(=O)N[C@@H](C)C(=O)N[C@@H](C)C(=O)N[C@H](C(=O)N[C@@H](C)C(=O)O)C(C)C)[C@@H](C)O", "note": "[MANS] (Myristoyl-GAQFSKTAAKGEAAAERPGEAAVA-OH; C-terminus assumed)", "values": [
      {"measurement": "% Inhibition Granzyme", "setting": "[1]", "result": 76.0, "unit": "%"},
      {"measurement": "Concentration of IFNγ in BAL fluid", "setting": "[2]", "result": "approximately 7.4 pg/mL"},
      {"measurement": "Concentration of KC in BAL fluid", "setting": "[2]", "result": "approximately 183.6 pg/mL"},
      {"measurement": "Concentration of IL-6 in BAL fluid", "setting": "[2]", "result": "approximately 364.5 pg/mL"},
      {"measurement": "% Inhibition of neutrophil migration into BAL fluid", "setting": "[2]; Balb/C mice, intratracheal pretreatment with 25 μL of 1.0 mM peptide in PBS 30 minutes before 2 hours ozone exposure, relative to control group treated with PBS alone", "result": 93.0, "unit": "%"},
      {"measurement": "effect on interferon-γ levels", "setting": "[2]; after ozone exposure", "result": "little effect"},
      {"measurement": "reduced neutrophil cell infiltration in the BAL fluid after ozone exposure", "setting": "[2]; vs. PBS control", "result": "93%±10%"}
    ]},
    {"compound": "CCCCCCCCCCCCCC(=O)NCC(=O)N[C@H](C(=O)N[C@@H](C)C(=O)N1CCC[C@H]1C(=O)N[C@@H](C)C(=O)N[C@@H](C)C(=O)N[C@@H](CCC(=O)O)C(=O)NCC(=O)N[C@@H](C)C(=O)NCC(=O)N[C@@H](C)C(=O)N[C@@H](CCC(=O)O)C(=O)N[C@H](C(=O)N[C@@H](CCCCN)C(=O)N[C@@H](CCCNC(=N)N)C(=O)N[C@@H](C)C(=O)N[C@@H](CO)C(=O)N[C@@H](C)C(=O)N[C@@H](CCC(=O)O)C(=O)N[C@@H](C)C(=O)N[C@@H](CCCCN)C(=O)N[C@@H](CCC(N)=O)C(=O)N[C@@H](C)C(=O)N[C@@H](Cc1ccccc1)C(=O)O)C(C)C)[C@@H](C)O", "note": "[RNS, reference compound] (Myristoyl-GTAPAAEGAGAEVKRASAEAKQAF-OH; C-terminus assumed)", "values": [
      {"measurement": "% Inhibition Granzyme", "setting": "[1]", "result": 29.5, "unit": "%"}
    ]},
    {"compound": "Ac-GAQFSKTAAK [Ac-GAQFSKTAAK]", "values": [
      {"measurement": "Concentration of IFNγ in BAL fluid", "setting": "[2]", "result": "approximately 3.6 pg/mL"},
      {"measurement": "Concentration of KC in BAL fluid", "setting": "[2]", "result": "approximately 159.7 pg/mL"},
      {"measurement": "Concentration of IL-6 in BAL fluid", "setting": "[2]", "result": "approximately 130.4 pg/mL"},
      {"measurement": "effect on interferon-γ levels", "setting": "[2]; after ozone exposure", "result": "little effect"},
      {"measurement": "diminished IL-6 levels / inhibition of IL-6 levels in BAL fluid", "setting": "[2]; [3]", "result": "91.3%±15% and ~91%"},
      {"measurement": "diminished KC concentrations / inhibition of KC levels in BAL fluid", "setting": "[2]; [3]", "result": "71.3%±10% and ~71%"},
      {"measurement": "reduced neutrophil cell infiltration in the BAL fluid after ozone exposure", "setting": "[2]; vs. PBS control", "result": "81%±10%"}
    ]}
  ]
}
